The values that follow come from patent US20240116892A1, “HETEROCYCLIC AMIDE AND UREA COMPOUNDS AS JAK2 INHIBITORS” (Ajax Therapeutics, Inc., priority 2022, published 2024).

One may read the pKd as the negative decadic logarithm of the Kd, by convention in mol/L. Read a high pKd as a small Kd.

The target in this test is JAK2 (JH1 domain-catalytic, Y1007F, Y1008F) kinase (Homo sapiens (Human), UniProt O60674, Y1007F/Y1008F). Nature of the test: JAK2 JH1 Domain Binding Assay. The note with it: qPCR readout. In short, it runs like this: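 JH1 catalytic domain (Y1007F/Y1008F) expressed as NFkB DNA-binding-domain fusion in HEK293 cells, DNA-tagged. Competition with immobilized biotinylated ligand on streptavidin beads, 1 h at RT in PBS/Tween/BSA/DTT; bound kinase eluted with free ligand and quantified by qPCR.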
In general terms: In qPCR the cycle at which signal appears reflects the starting amount.

pKd: −log10 of the molar value.

Chain of JAK2 (JH1 domain-catalytic, Y1007F, Y1008F) kinase (O60674 849-1124 Y1007F/Y1008F): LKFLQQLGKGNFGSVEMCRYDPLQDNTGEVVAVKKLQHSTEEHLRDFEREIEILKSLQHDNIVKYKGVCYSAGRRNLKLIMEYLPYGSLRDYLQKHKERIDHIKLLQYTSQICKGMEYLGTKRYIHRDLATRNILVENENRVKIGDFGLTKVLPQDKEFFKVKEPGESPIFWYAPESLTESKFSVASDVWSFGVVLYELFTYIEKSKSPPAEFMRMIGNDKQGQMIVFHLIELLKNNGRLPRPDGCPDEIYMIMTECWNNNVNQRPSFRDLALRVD

Compound `CN(C(=O)Nc1cc(C(F)(F)F)cn(C)c1=O)[C@@H]1CC=C(c2cnc3[nH]ncc3n2)CC1` (single isomer, unassigned) [Example I-160-a, (S)- or (R)-1-(4-(1H-pyrazolo[3,4-b]pyrain-5-yl)cyclohex-3-en-1-yl)-1-methyl-3-(2-methyl-2-oxo-5-(trifluoromethyl)-1,2-dihydropyridin-3-yl)urea] had a pKd of over 8.00. Under `Cn1cc(C(F)(F)F)cc(NC(=O)N(C)[C@H]2CC[C@H](c3cnc4[nH]ccc4n3)CC2)c1=O` [Example I-120-a, trans-1-(4-(5H-pyrrolo[2,3-b]pyrazin-2-yl)cyclohexyl)-1-methyl-3-(1-methyl-2-oxo-5-(trifluoromethyl)-1,2-dihydropyridin-3-yl)urea] stands 6.00 to 7.30; under `COCc1cc2nc(N3CC[C@@H](N(C)C(=O)Nc4cc(C(F)(F)F)cn(C)c4=O)[C@@H](F)C3)cnc2[nH]1` [Example I-111-a, 1-((3S,4R)-3-fluoro-1-(6-(methoxymethyl)-5H-pyrrolo[2,3-b]pyrazin-2-yl)piperidin-4-yl)-1-methyl-3-(1-methyl-2-oxo-5-(trifluoromethyl)-1,2-dihydropyridin-3-yl)urea], over 8.00; under `CN1CCN(c2n[nH]c3ncc(N4CC[C@H](N(C)C(=O)Nc5cc(C(F)(F)F)cn(C)c5=O)C(F)(F)C4)cc23)CC1` (single isomer, unassigned) [Example I-154-b, (R)- or (S)-1-(3,3-difluoro-1-(3-(4-methylpiperazin-1-yl)-1H-pyrazolo[3,4-b]pyridin-5-yl)piperidin-4-yl)-1-methyl-3-(1-methyl-2-oxo-5-(trifluoromethyl)-1,2-dihydropyridin-3-yl)urea], over 8.00. The same measure for `CC(=O)Nc1cnc(N2CCC(N(C)C(=O)Nc3cccc(C(F)(F)F)c3)CC2)cn1` [Example I-16, N-(5-(4-(1-methyl-3-(3-(trifluoromethyl)phenyl)ureido)piperidin-1-yl)pyrazin-2-yl)acetamide]: over 8.00. The same measure for `CN(C(=O)Nc1cc(C(F)(F)F)cn(C)c1=O)[C@H]1CCN(c2cnc3[nH]nc(OC[C@H]4COCCO4)c3c2)C[C@H]1F` [Example I-102-b, 1-((3R,4S)-1-(3-(((R)-1,4-dioxan-2-yl)methoxy)-1H-pyrazolo[3,4-b]pyridin-5-yl)-3-fluoropiperidin-4-yl)-1-methyl-3-(1-methyl-2-oxo-5-(trifluoromethyl)-1,2-dihydropyridin-3-yl)urea]: over 8.00; for `CN(C(=O)Nc1cc(C(F)(F)F)cn(C)c1=O)C1CCCN(c2cnc3[nH]ccc3n2)CC1` (single isomer, unassigned) [Example I-41-a, (R)- or (S)-1-(1-(5H-pyrrolo[2,3-b]pyrazin-2-yl)azepan-4-yl)-1-methyl-3-(1-methyl-2-oxo-5-(trifluoromethyl)-1,2-dihydropyridin-3-yl)urea]: 5.30 to 6.00; for `CC(=O)Nc1cnc(N2CC[C@@H](N(C)C(=O)Nc3cc(C(F)(F)F)cn(C)c3=O)C[C@H]2C)cn1` [Example I-134-b, N-(5-((2R,4R)-2-methyl-4-(1-methyl-3-(1-methyl-2-oxo-5-(trifluoromethyl)-1,2-dihydropyridin-3-yl)ureido)piperidin-1-yl)pyrazin-2-yl)acetamide]: 7.30 to 8.00. For `COc1n[nH]c2ncc(N3CC[C@H](N(C)C(=O)Nc4cc(C(F)(F)F)cn(C)c4=O)[C@H](OC)C3)cc12` [Example I-106-b, 1-((3R,4S)-3-methoxy-1-(3-methoxy-1H-pyrazolo[3,4-b]pyridin-5-yl)piperidin-4-yl)-1-methyl-3-(1-methyl-2-oxo-5-(trifluoromethyl)-1,2-dihydropyridin-3-yl)urea], the pKd was over 8.00. Under `CN(C(=O)Nc1cc(C(F)(F)F)cn(C)c1=O)[C@H]1CCN(c2cnc3[nH]nc(OC4COC4)c3c2)C[C@H]1F` [Example I-101-b, 1-((3R,4S)-3-fluoro-1-(3-(oxetan-3-yloxy)-1H-pyrazolo[3,4-b]pyridin-5-yl)piperidin-4-yl)-1-methyl-3-(1-methyl-2-oxo-5-(trifluoromethyl)-1,2-dihydropyridin-3-yl)urea] stands 5.30 to 6.00. In turn, `CO[C@@H]1CN(c2cnc3[nH]ncc3c2)CC[C@H]1N(C)C(=O)Nc1cc(C(F)(F)F)cn(C)c1=O` [Example I-109-a, 1-((3R,4R)-3-methoxy-1-(1H-pyrazolo[3,4-b]pyridin-5-yl)piperidin-4-yl)-1-methyl-3-(1-methyl-2-oxo-5-(trifluoromethyl)-1,2-dihydropyridin-3-yl)urea] showed a pKd of 7.30 to 8.00. The same measure for `Cn1cc(C(F)(F)F)cc(NC(=O)N(C)[C@H]2CC[C@@H](c3cnc4[nH]ccc4n3)CC2)c1=O` [Example I-120-b, cis-1-(4-(5H-pyrrolo[2,3-b]pyrazin-2-yl)cyclohexyl)-1-methyl-3-(1-methyl-2-oxo-5-(trifluoromethyl)-1,2-dihydropyridin-3-yl)urea]: over 8.00. Turning to `CO[C@H]1CN(c2cnc3[nH]ncc3c2)CC[C@@H]1N(C)C(=O)Nc1cc(C(F)(F)F)cn(C)c1=O` [Example I-109-b, 1-((3S,4S)-3-methoxy-1-(1H-pyrazolo[3,4-b]pyridin-5-yl)piperidin-4-yl)-1-methyl-3-(1-methyl-2-oxo-5-(trifluoromethyl)-1,2-dihydropyridin-3-yl)urea], the negative-log Kd (pKd) is 7.30 to 8.00. The same measure for `Cc1cc(NC(=O)CC2CCN(c3cnccn3)CC2)cc(C(F)(F)F)c1` [Example I-1, N-(3-methyl-5-(trifluoromethyl)phenyl)-2-(1-(pyrazin-2-yl)piperidin-4-yl)acetamide]: 5.30 to 6.00; for `CN(C(=O)Nc1cc(C(F)(F)F)cn(C)c1=O)[C@H]1CCN(c2cnc3[nH]ccc3n2)C[C@@H]1F` (single isomer, unassigned) [Example I-63-b]: over 8.00. Under `CN(C(=O)Nc1cc(C(F)(F)F)ccn1)[C@@H]1CCN(c2cnc3[nH]ncc3c2)CC1(F)F` (mixture of isomers) [Example I-146-a, (R)-1-(3,3-difluoro-1-(1H-pyrazolo[3,4-b]pyridin-5-yl)piperidin-4-yl)-1-methyl-3-(4-(trifluoromethyl)pyridin-2-yl)urea and (S)-1-(3,3-difluoro-1-(1H-pyrazolo[3,4-b]pyridin-5-yl)piperidin-4-yl)-1-methyl-3-(4-(trifluoromethyl)pyridin-2-yl)urea] stands over 8.00; under `CN(C(=O)Nc1cc(C(F)(F)F)cn(C)c1=O)C1CCN(c2cnc3[nH]cc(F)c3n2)CC1` [Example I-39, 1-(1-(7-fluoro-5H-pyrrolo[2,3-b]pyrazin-2-yl)piperidin-4-yl)-1-methyl-3-(1-methyl-2-oxo-5-(trifluoromethyl)-1,2-dihydropyridin-3-yl)urea], over 8.00. In turn, `CN(C(=O)Nc1cc(C(F)(F)F)cn(C)c1=O)[C@@H]1CCN(c2cnc3[nH]n(C)c(=O)c3c2)C[C@H]1F` [Example I-90-b, 1-((3R,4R)-3-fluoro-1-(2-methyl-3-oxo-2,3-dihydro-1H-pyrazolo[3,4-b]pyridin-5-yl)piperidin-4-yl)-1-methyl-3-(1-methyl-2-oxo-5-(trifluoromethyl)-1,2-dihydropyridin-3-yl)urea] gave a pKd of 7.30 to 8.00. Under `C[C@@H]1CN(C(=O)Nc2cc(C(F)(F)F)cn(C)c2=O)C2(CCN(c3cnc4[nH]ccc4n3)CC2)C1` (single isomer, unassigned) [Example I-53-a] stands 6.00 to 7.30.

`CN(C(=O)Nc1cc(C(F)(F)F)cn(C)c1=O)C12CC(c3ccc(NC(=O)C4CC4)nc3)(C1)C2` [Example I-179, N-(5-(3-(1-methyl-3-(1-methyl-2-oxo-5-(trifluoromethyl)-1,2-dihydropyridin-3-yl)ureido)bicyclo[1.1.1]pentan-1-yl)pyridin-2-yl)cyclopropanecarboxamnide] gave a negative-log Kd (pKd) of 7.30 to 8.00. The same measure for `CO[C@H]1CN(c2cnc3[nH]nc(N(C)C)c3c2)CC[C@@H]1N(C)C(=O)Nc1cc(C(F)(F)F)cn(C)c1=O` [Example I-115-b, 1-((3S,4S)-1-(3-(dimethylamino)-1H-pyrazolo[3,4-b]pyridin-5-yl)-3-methoxypiperidin-4-yl)-1-methyl-3-(1-methyl-2-oxo-5-(trifluoromethyl)-1,2-dihydropyridin-3-yl)urea]: 6.00 to 7.30.

With `COc1n[nH]c2ncc(N3CC[C@@H](N(C)C(=O)Nc4cc(C(F)(F)F)cn(C)c4=O)[C@H](OC)C3)cc12` [Example I-108-a, 1-((3R,4R)-3-methoxy-1-(3-methoxy-1H-pyrazolo[3,4-b]pyridin-5-yl)piperidin-4-yl)-1-methyl-3-(1-methyl-2-oxo-5-(trifluoromethyl)-1,2-dihydropyridin-3-yl)urea], the pKd was 7.30 to 8.00.

Take `CN(C(=O)Nc1cc(C(F)(F)F)cn(C)c1=O)[C@H]1CCN(c2cnc3[nH]n(C)c(=O)c3c2)C[C@H]1F` [Example I-89-b, 1-((3R,4S)-3-fluoro-1-(2-methyl-3-oxo-2,3-dihydro-1H-pyrazolo[3,4-b]pyridin-5-yl)piperidin-4-yl)-1-methyl-3-(1-methyl-2-oxo-5-(trifluoromethyl)-1,2-dihydropyridin-3-yl)urea]: the pKd was 7.30 to 8.00. The same measure for `CNc1c[nH]c2ncc([C@H]3CC[C@@H](N(C)C(=O)Nc4cc(C(F)(F)F)cn(C)c4=O)CC3)nc12` [Example I-145, 1-methyl-3-(1-methyl-2-oxo-5-(trifluoromethyl)-1,2-dihydropyridin-3-yl)-1-((1s,4s)-4-(7-(methylamino)-5H-pyrrolo[2,3-b]pyrazin-2-yl)cyclohexyl)urea]: over 8.00; for `COc1c[nH]c2ncc(N3CC[C@H](N(C)C(=O)Nc4cc(C(F)(F)F)cn(C)c4=O)C[C@@H]3C)nc12` [Example I-161-a, 1-((2S,4S)-1-(7-methoxy-5H-pyrrolo[2,3-b]pyrazin-2-yl)-2-methylpiperidin-4-yl)-1-methyl-3-(1-methyl-2-oxo-5-(trifluoromethyl)-1,2-dihydropyridin-3-yl)urea]: 6.00 to 7.30.
